Assay results reported in patent publication US20130230486A1, “COMPOSITIONS AND METHODS TO INDUCE TARGETED APOPTOSIS” (priority 2010, published 2013).

How the values were obtained:
[1] = system: caspase-8; assay: Caspase-8 activation (Fas-induced apoptosis) in lung fibroblasts; assay type: cell-based, human; settings: MRC5
Description: To assess the effects of these cytokines on PTPN13 expression, non-diseased normal human lung fibroblasts (NHLF), fibrotic human lung fibroblasts (FHLF) and a fetal lung fibroblast cell line, MRC5 cells, were treated with TNF-α (10/ng/ml), IFN-γ (50 U/ml) or with both cytokines for 6 hours. PTPN13 expression was measured by quantitative PCR (FIG. 2A). The primary lung fibroblasts from normal and fibrotic lung had equivalent levels of PTPN13 expression to the MRC5 lung fibroblast cell line. […] Treatment with TNF-α alone caused a 40% decrease in PTPN13 expression. Combined exposure to TNF-α and IFN-γ decreased PTPN13 mRNA expression by 80%. Protein lysates from normal, fibrotic and MRC5 fibroblasts treated for 36 hours with TNF-α (10/ng/ml), IFN-γ (50 U/ml) or with both cytokines were then analyzed for PTPN13 expression. […]
In one exemplary method, to assess whether PTPN13 expression prevents Fas-induced apoptosis, PTPN13 expression was knocked-down using siRNA. […] Apoptosis was assayed by quantifying activation of caspase-3 and caspase-8 (FIG. 3C).
In death-receptor mediated apoptosis, formation of the DISC (Death-Inducing Signaling Complex) is essential for the initiation of apoptosis. […] The cells were lysed, immunoprecipitated with anti-Fas antibody, and co-immunoprecipitated FADD and caspase-8 were detected by immunoblotting. […]

[2] = system: Fas phospho-Y291; assay: Tyrosine phosphorylation of Fas at tyrosine 291 by Western blot in MRC5 lung fibroblasts; assay type: cell-based, human; settings: pervanadate 150 μM, time dependent
Description: PTPN13 has been shown in astrocytoma cells to dephosphorylate Fas at tyrosine 291. Little is known about the regulatory function of tyrosine phosphorylation of Fas. In another exemplary embodiment, to assess the effect of TNF-α and IFN-γ sensitization on the levels of Fas tyrosine phosphorylation, MRC5 lung fibroblasts were treated with TNF-α and IFN-γ for increasing amounts of time. Because TNF-α is known to increase tyrosine phosphorylation of many proteins, such as MAP kinases and AKT, within minutes following stimulation, the kinetics of TNF-α and IFN-γ induced tyrosine phosphorylation of Fas were assessed. MRC5 lung fibroblasts were treated with TNF-α (10 ng/ml) and IFN-γ (50 U/ml) for up to 48 hours. The cells were lysed and analyzed by western blot for phosphorylated Fas, using a phospho-specific antibody for Fas phosho-Y291. TNF-α and IFN-γ increased tyrosine phosphorylation of Fas at tyrosine residue 291 beginning at 18 hours. […] The pervanadate treated MRC5 cells were lysed and analyzed the tyrosine phosphorylation of Fas by western blotting. […] We then detected phosphorylated Fas by Western blot, using a phospho-specific antibody for Fas tyrosine residue 291. […]
FIG. 5: Inhibition of tyrosine phosphatase activity sensitizes lung fibroblasts to Fas-induced apoptosis. […] Caspase-8 activation was measured by a fluorescence based assay. […]

Substance: pervanadate
- caspase-8 activity over unstimulated cells ([1]; 150 μM pervanadate 2 hour pre-treatment, then Fas-activating antibody 250 ng/ml): 6 fold
- caspase-8 activity above untreated cells ([1]; 150 μM pervanadate alone): 2 fold
- tyrosine phosphorylation of Fas (Y291) [2]: increased
